Source: the supplement of paper PMC10307832

How the values were obtained:
Experiment in all cases: relative viability (nuclei count vs DMSO), 5 days (fraction); higher = more cells survive
[1] = compound: CC(O)(CS(=O)(=O)c1ccc(F)cc1)C(=O)Nc1ccc(C#N)c(C(F)(F)F)c1 [Bicalutamide] + CCNC(=O)c1noc(-c2cc(C(C)C)c(O)cc2O)c1-c1ccc(CN2CCOCC2)cc1 [Luminespib] (partner 0.01 µM)
Summary of the method: (§1)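 Values are medians from duplicate plates. Each reflects relative viability, defined as the nuclei count of treated wells over that of vehicle wells. Lung cancer cell lines in 1536-well plates were pin-tool dosed one day after seeding with one drug alone or with a fixed anchor-drug dose plus five library-drug doses (not always all listed) in √10 steps, then fixed, stained and imaged at 4× after 5 days.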

[2] = compound: C(C(=O)C(=O)O)Br [Bromopyruvate] + CCNC(=O)c1noc(-c2cc(C(C)C)c(O)cc2O)c1-c1ccc(CN2CCOCC2)cc1 [Luminespib] (partner 0.01 µM)
Summary of the method: as §1

[3] = compound: CC(O)(CS(=O)(=O)c1ccc(F)cc1)C(=O)Nc1ccc(C#N)c(C(F)(F)F)c1 [Bicalutamide] + N=C(N)NC(=N)NCCc1ccccc1 [Phenformin] (partner 250 µM)
Summary of the method: as §1

[4] = compound: C(C(=O)C(=O)O)Br [Bromopyruvate] + N=C(N)NC(=N)NCCc1ccccc1 [Phenformin] (partner 250 µM)
Summary of the method: as §1

Cell Line UMC-11 has a relative viability ([1]; first compound 0.08 µM) of 1.07, a relative viability ([1]; first compound 0.253 µM) of 1.03 and a relative viability ([1]; first compound 0.8 µM) of 1.14. The relative viability ([1]; first compound 2.53 µM) was 0.949, the relative viability ([2]; first compound 1 µM) was 0.959 and the relative viability ([2]; first compound 3.162 µM) was 0.998. For the same cell line, the relative viability ([2]; first compound 10 µM) was 0.987, the relative viability ([2]; first compound 31.62 µM) was 1.05 and the relative viability ([2]; first compound 100 µM) was 1.06. For the same cell line, the relative viability ([3]; first compound 0.08 µM) was 0.35, the relative viability ([3]; first compound 0.253 µM) was 0.319 and the relative viability ([3]; first compound 0.8 µM) was 0.372. It also gave a relative viability ([3]; first compound 2.53 µM) of 0.302, a relative viability ([4]; first compound 1 µM) of 0.343 and a relative viability ([4]; first compound 3.162 µM) of 0.328. The relative viability ([4]; first compound 10 µM) was 0.314, the relative viability ([4]; first compound 31.62 µM) was 0.329 and the relative viability ([4]; first compound 100 µM) was 0.292.
